Results on 14 molecules are retold here after patent US9216986B1, “Quinoline derivatives as PDE10A enzyme inhibitors” (H. Lundbeck A/S, priority 2011, dated 2015).

Assay [1] deals with rats. Particulars: cited from earlier work.
Assay [2] relates to rats. To be noted: cited from earlier work. This is another data set of the same source.
For assay [3], the system named is rats. To be noted: cited from earlier work. The source holds these as a separate data set.
For the next assay, the target named is PDE10A enzyme (Homo sapiens (Human), UniProt Q9Y233). In words: PDE10A inhibition assay. Format: biochemical. To be noted: tritium labeled cAMP 5 nM. The method, then: Active PDE10A enzyme is prepared in a number of ways for use in PDE assays (Loughney, K. et al. Gene 1999, 234, 109-117; Fujishige, K. et al. Eur J Biochem. 1999, 266, 1118-1127 and Soderling, S. et al. Proc. Natl. Acad. Sci. 1999, 96, 7071-7076). PDE10A can be expressed as full-length proteins or as truncated proteins, as long as they express the catalytic domain. PDE10A can be prepared in different cell types, for example insect cells or E. coli. An example of a method to obtain catalytically active PDE10A is as follows: The catalytic domain of human PDE10A (amino acids 440-779 from the sequence with accession number NP 006652) is amplified from total human brain total RNA by standard RT-PCR and is cloned into the BamH1 and Xho1 sites of the pET28a vector (Novagen). Expression in coli is performed according to standard protocols. Briefly, the expression plasmids are transformed into the BL21(DE3) E. coli strain, and 50 mL cultures inoculated with the cells allowed to grow to an OD600 of 0.4-0.6 before protein expression is induced with 0.5 mM IPTG. Following induction, the cells are incubated overnight at room temperature, after which the cells are collected by centrifugation. Cells expressing PDE10A are resuspended in 12 mL (50 mM TRIS-HCl-pH8.0, 1 mM MgCl2 and protease inhibitors). The cells are lysed by sonication, and after all cells are lysed, TritonX100 is added according to Novagen protocols.
PDE10A enzyme, sequence (Q9Y233 716-1055): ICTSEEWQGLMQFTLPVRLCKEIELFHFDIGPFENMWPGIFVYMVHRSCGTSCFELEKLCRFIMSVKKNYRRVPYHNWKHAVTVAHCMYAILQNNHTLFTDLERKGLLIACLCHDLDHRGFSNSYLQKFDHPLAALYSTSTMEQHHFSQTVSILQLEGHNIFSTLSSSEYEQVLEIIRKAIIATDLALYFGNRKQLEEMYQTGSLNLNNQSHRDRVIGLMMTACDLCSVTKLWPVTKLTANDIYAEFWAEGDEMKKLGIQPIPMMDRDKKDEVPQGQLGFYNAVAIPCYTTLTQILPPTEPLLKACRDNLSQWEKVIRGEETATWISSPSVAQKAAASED
A PDE10A assay may for example, be performed as follows: The assay is performed in 60 uL samples containing a fixed amount of the relevant PDE enzyme (sufficient to convert 20-25% of the cyclic nucleotide substrate), a buffer (50 mM HEPES7.6; 10 mM MgCl2; 0.02% Tween20), 0.1 mg/ml BSA, 225 pCi of ^3H-labelled cyclic nucleotide substrate, tritium labeled cAMP to a final concentration of 5 nM and varying amounts of inhibitors. Reactions are initiated by addition of the cyclic nucleotide substrate, and reactions are allowed to proceed for one hr at room temperature before being terminated through mixing with 15 uL 8 mg/mL yttrium silicate SPA beads (Amersham). The beads are allowed to settle for one hr in the dark before the plates are counted in a Wallac 1450 Microbeta counter. The measured signal can be converted to activity relative to an uninhibited control (100%) and IC50 values can be calculated using the XIfit extension to EXCEL.

With `COc1ccc(Cc2nccc3cc(OC)c(OC)cc23)cc1OC` [Papaverine, papaverine], in the assay on rats [1], the “hyperactivity induced by PCP” value is “reduced hyperactivity”. Further, in the assay on rats [2], the “reduction of amphetamine induced hyperactivity” value is listed as “insignificant”. For the same molecule, the “catalepsy on its own” value in the assay with rats [3] (papaverine alone) is listed as “did not cause catalepsy on its own”. Moreover, the “cataleptic effect of the D2 receptor antagonist haloperidol” value in the assay on rats [3] (together with haloperidol) was “potentiated the cataleptic effect”.
`Cc1ncc(C)n2nc(CCc3cc(O)c4cc(F)ccc4n3)nc12` [2-[2-(5,8-Dimethyl-[1,2,4]triazolo[1,5-a]pyrazin-2-yl)-ethyl]-6-fluoro-quinolin-4-ol] displayed an IC50 on PDE10A enzyme of 410 nM. This counts as sub-micromolar.
On to `Cc1ncc(C)n2nc(CCc3ccc4cc(Cl)cc(F)c4n3)nc12` [6-Chloro-2-[2-(5,8-dimethyl-[1,2,4]triazolo[1,5-a]pyrazin-2-yl)-ethyl]-8-fluoro-quinoline], for which the IC50 at PDE10A enzyme turned out to be 240 nM. This IC50 is about 1.7-fold lower than that of the molecule before.
At PDE10A enzyme, `Cc1ncc(C)n2nc(CCc3ccc4cc5c(cc4n3)OC(F)(F)O5)nc12` [6-[2-(5,8-Dimethyl-[1,2,4]triazolo[1,5-a]pyrazin-2-yl)-ethyl]-2,2-difluoro-[1,3]dioxolo[4,5-g]quinoline] gave an IC50 of 520 nM. Compared with the last molecule, the IC50 is about 2.2-fold higher.
`COc1cc(CCc2nc3cccc(C)n3n2)nc2ccccc12` [4-Methoxy-2-[2-(5-methyl-[1,2,4]triazolo[1,5-a]pyridin-2-yl)-ethyl]-quinoline]: on PDE10A enzyme, 190 nM corresponded to half-maximal inhibition (IC50).
Take `Cc1cc(C)n2cc(/C=C\c3ccc4ccccc4n3)nc2n1` [2-[(Z)-2-(5,7-Dimethyl-imidazo[1,2-a]pyrimidin-2-yl)-vinyl]-quinoline]: at PDE10A enzyme, 240 nM corresponded to half-maximal inhibition (IC50).
`COc1ccc(C)n2nc(CCc3ccc4cc(F)ccc4n3)nc12` [6-Fluoro-2-[2-(8-methoxy-5-methyl-[1,2,4]triazolo[1,5-a]pyridin-2-yl)-ethyl]-quinoline]: the IC50 against PDE10A enzyme is 34 nM. Compared with the last molecule, the IC50 is about 7.1-fold lower.
The same measure, in the same setting: under `Cc1ncc(C)n2nc(/C=C/c3ccc4cc(F)ccc4n3)nc12` [2-[(E)-2-(5,8-Dimethyl-[1,2,4]triazolo[1,5-a]pyrazin-2-yl)-vinyl]-6-fluoro-quinoline] stands 190 nM; under `Cc1ncc(C)n2nc(CCc3ccc4ccccc4n3)nc12` [2-[2-(5,8-Dimethyl-[1,2,4]triazolo[1,5-a]pyrazin-2-yl)-ethyl]-quinoline], 19 nM.
Regarding `COc1cc(CCc2nc3c(C)ncc(C)n3n2)nc2cc(F)ccc12` [2-[2-(5,8-Dimethyl-[1,2,4]triazolo[1,5-a]pyrazin-2-yl)-ethyl]-7-fluoro-4-methoxy-quinoline], half-maximal inhibition against PDE10A enzyme (IC50) required 26 nM.
In turn, `Cc1ncc(C)n2nc(CCc3cc(O)c4ccc(F)cc4n3)nc12` [2-[2-(5,8-Dimethyl-[1,2,4]triazolo[1,5-a]pyrazin-2-yl)-ethyl]-7-fluoro-quinolin-4-ol] showed an IC50 on PDE10A enzyme of 500 nM.
Still for that read-out and setting: under `COc1ccc(C)n2nc(CCc3ccc4ccccc4n3)nc12` [2-[2-(8-Methoxy-5-methyl-[1,2,4]triazolo[1,5-a]pyridin-2-yl)-ethyl]-quinoline] stands 12 nM.
`COc1ccc(C)n2nc(CCc3ccc4cccc(F)c4n3)nc12` [8-Fluoro-2-[2-(8-methoxy-5-methyl-[1,2,4]triazolo[1,5-a]pyridin-2-yl)-ethyl]-quinoline]: the half-maximal inhibitory concentration (IC50) at PDE10A enzyme was 150 nM.
The molecule `COc1ccc2ccc(/C=C/c3nc4c(C)ncc(C)n4n3)nc2c1` [2-[(E)-2-(5,8-Dimethyl-[1,2,4]triazolo[1,5-a]pyrazin-2-yl)-vinyl]-7-methoxy-quinoline] returned an IC50 against PDE10A enzyme of 13 nM.

For orientation: IC50 means the concentration that gives 50% inhibition.
